Experimental data as given in patent US9302999B2, “Substituted triazoles as herbicides” (E. I. DU PONT DE NEMOURS AND COMPANY, priority 2012, dated 2016).

Legend:
Type in all cases: in vivo
[1] = test system: barnyardgrass (Echinochloa crus-galli); test: Test A pre-/postemergence: barnyardgrass
Outline: (§1)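 Injury was scored visually on a 0 (no effect) to 100 (complete control) scale versus untreated controls roughly ten days after treatment in the greenhouse. Compounds, formulated in surfactant-containing non-phytotoxic solvent, went on as soil-directed preemergence spray or postemergence to one- to two-leaf plants 2–10 cm tall.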

[2] = test system: rice (Oryza sativa); test: Test B flooded paddy: rice; conditions: Flood, applied to paddy water at 2-leaf stage, visually evaluated after 13 to 15 days
Procedure: (§2) Seeds selected from rice (Oryza sativa), sedge, umbrella (small-flower umbrella sedge Cyperus difformis), ducksalad (Heteranthera limosa), and barnyardgrass (Echinochloa crus-galli) were grown to the 2-leaf stage for testing. At time of treatment, test pots were flooded to 3 cm above the soil surface, treated by application of test compounds directly to the paddy water, and then maintained at that water depth for the duration of the test.
(§3) Treated plants and controls were maintained in a greenhouse for 13 to 15 days, after which time all species were compared to controls and visually evaluated. Plant response ratings, summarized in Table B, are based on a scale of 0 to 100 where 0 is no effect and 100 is complete control. A dash (-) response means no test result.

[3] = test system: foxtail, giant (giant foxtail, Setaria faberii); test: Test A pre-/postemergence: foxtail, giant
Outline: as §1

[4] = test system: pigweed (Amaranthus retroflexus); test: Test A pre-/postemergence: pigweed
Outline: as §1

[5] = test system: corn (Zea mays); test: Test A pre-/postemergence: corn
Outline: as §1

[6] = test system: wheat (Triticum aestivum); test: Test A pre-/postemergence: wheat
Outline: as §1

[7] = test system: barnyardgrass (Echinochloa crus-galli); test: Test B flooded paddy: barnyardgrass; conditions: Flood, applied to paddy water at 2-leaf stage, visually evaluated after 13 to 15 days
Procedure: as §2, §3

[8] = test system: velvetleaf (Abutilon theophrasti); test: Test A pre-/postemergence: velvetleaf
Outline: as §1

[9] = test system: morningglory (Ipomoea spp.); test: Test A pre-/postemergence: morningglory
Outline: as §1

[10] = test system: ducksalad (Heteranthera limosa); test: Test B flooded paddy: ducksalad; conditions: Flood, applied to paddy water at 2-leaf stage, visually evaluated after 13 to 15 days
Procedure: as §2, §3

[11] = test system: crabgrass, large (large crabgrass, Digitaria sanguinalis); test: Test A pre-/postemergence: crabgrass, large
Outline: as §1

[12] = test system: sedge, umbrella (small-flower umbrella sedge Cyperus difformis); test: Test B flooded paddy: sedge, umbrella; conditions: Flood, applied to paddy water at 2-leaf stage, visually evaluated after 13 to 15 days
Procedure: as §2, §3

[13] = Postemergence, 125 g ai/ha, 0 to 100 scale, 0 is no effect, 100 is complete control
[14] = Postemergence, 500 g ai/ha, 0 to 100 scale, 0 is no effect, 100 is complete control
[15] = Preemergence, 125 g ai/ha, 0 to 100 scale where 0 is no effect and 100 is complete control
[16] = Preemergence, 500 g ai/ha, 0 to 100 scale (0 no effect, 100 complete control)
[17] = Postemergence, 500 g ai/ha, visual rating on 0 to 100 scale (0 no effect, 100 complete control), approximately ten days
[18] = Preemergence, 125 g ai/ha, 0 to 100 scale (0 no effect, 100 complete control)
[19] = Preemergence, 500 g ai/ha, 0 to 100 scale, 0 is no effect, 100 is complete control

CCCCOc1nn(-c2ccc(C(F)(F)F)cc2)nc1Cc1ccnc(C(F)(F)F)c1 [Compound 194]
Plant response rating, Barnyardgrass [1, 13]: 10
Barnyardgrass plant response rating [1, 14]: 20
Plant response rating, Barnyardgrass [1, 15]: 0
Plant response rating, Barnyardgrass [1, 16]: 0
Plant response rating, Rice (0 to 100 scale, 0 is no effect, 100 is complete control) ([2]; 125 g ai/ha): 0
Plant response rating, Foxtail, Giant [3, 13]: 10
Foxtail, Giant plant response rating [3, 14]: 30
Plant response rating, Foxtail, Giant [3, 15]: 0
Plant response rating, Foxtail, Giant [3, 16]: 30
Plant response rating, Pigweed [4, 13]: 40
Pigweed plant response rating [4, 14]: 100
Plant response rating, Pigweed [4, 15]: 0
Plant response rating, Pigweed [4, 16]: 10
Plant response rating, Corn [5, 13]: 0
Corn plant response rating [5, 14]: 20
Plant response rating, Corn [5, 15]: 0
Plant response rating, Corn [5, 16]: 0
Plant response rating, Wheat [6, 13]: 0
Wheat plant response rating [6, 14]: 20
Plant response rating, Wheat [6, 15]: 0
Plant response rating, Wheat [6, 16]: 0
Plant response rating, Barnyardgrass (0 to 100 scale, 0 is no effect, 100 is complete control) ([7]; 125 g ai/ha): 0
Plant response rating, Velvetleaf [8, 13]: 30
Velvetleaf plant response rating [8, 14]: 50
Plant response rating, Velvetleaf [8, 15]: 0
Plant response rating, Velvetleaf [8, 16]: 0
Plant response rating, Morningglory [9, 13]: 10
Morningglory plant response rating [9, 14]: 30
Plant response rating, Morningglory [9, 15]: 0
Plant response rating, Morningglory [9, 16]: 0
Plant response rating, Ducksalad (0 to 100 scale, 0 is no effect, 100 is complete control) ([10]; 125 g ai/ha): 0
Plant response rating, Crabgrass, Large [11, 13]: 10
Crabgrass, Large plant response rating [11, 14]: 20
Plant response rating, Crabgrass, Large [11, 15]: 0
Plant response rating, Crabgrass, Large [11, 16]: 10
Plant response rating, Sedge, Umbrella (0 to 100 scale, 0 is no effect, 100 is complete control) ([12]; 125 g ai/ha): 0

CCCOc1nn(-c2ccc(C(F)(F)F)cc2)nc1Cc1ccnc(C(F)(F)F)c1 [Compound 191]
Plant response rating, Barnyardgrass [1, 13]: 60
Barnyardgrass plant response rating [1, 14]: 100
Plant response rating, Barnyardgrass [1, 15]: 90
Plant response rating, Barnyardgrass [1, 16]: 100
Plant response rating, Rice (0 to 100 scale, 0 is no effect, 100 is complete control) ([2]; 125 g ai/ha): 50
Plant response rating, Foxtail, Giant [3, 13]: 90
Foxtail, Giant plant response rating [3, 14]: 100
Plant response rating, Foxtail, Giant [3, 15]: 100
Plant response rating, Foxtail, Giant [3, 16]: 100
Plant response rating, Pigweed [4, 13]: 100
Pigweed plant response rating [4, 14]: 100
Plant response rating, Pigweed [4, 15]: 100
Plant response rating, Pigweed [4, 16]: 100
Plant response rating, Corn [5, 13]: 30
Corn plant response rating [5, 14]: 80
Plant response rating, Corn [5, 15]: 20
Plant response rating, Corn [5, 16]: 60
Plant response rating, Wheat [6, 13]: 70
Wheat plant response rating [6, 14]: 80
Plant response rating, Wheat [6, 15]: 40
Plant response rating, Wheat [6, 16]: 70
Plant response rating, Barnyardgrass (0 to 100 scale, 0 is no effect, 100 is complete control) ([7]; 125 g ai/ha): 50
Plant response rating, Velvetleaf [8, 13]: 80
Velvetleaf plant response rating [8, 14]: 100
Plant response rating, Velvetleaf [8, 15]: 30
Plant response rating, Velvetleaf [8, 16]: 80
Plant response rating, Morningglory [9, 13]: 100
Morningglory plant response rating [9, 14]: 100
Plant response rating, Morningglory [9, 15]: 20
Plant response rating, Morningglory [9, 16]: 30
Plant response rating, Ducksalad (0 to 100 scale, 0 is no effect, 100 is complete control) ([10]; 125 g ai/ha): 20
Plant response rating, Crabgrass, Large [11, 13]: 90
Crabgrass, Large plant response rating [11, 14]: 100
Plant response rating, Crabgrass, Large [11, 15]: 100
Plant response rating, Crabgrass, Large [11, 16]: 100
Plant response rating, Sedge, Umbrella (0 to 100 scale, 0 is no effect, 100 is complete control) ([12]; 125 g ai/ha): 50

Cc1cnccc1Oc1nn(-c2ccc(F)cc2)nc1C [Compound 87]
Barnyardgrass plant response rating [1, 13]: 0
Barnyardgrass plant response rating [1, 17]: 0
Plant response rating, Barnyardgrass [1, 18]: 0
Plant response rating, Barnyardgrass [1, 19]: 0
Plant response rating, Rice (0 to 100 scale, 0 is no effect, 100 is complete control) ([2]; 250 g ai/ha): 0
Foxtail, Giant plant response rating [3, 13]: 0
Foxtail, Giant plant response rating [3, 17]: 0
Plant response rating, Foxtail, Giant [3, 18]: 0
Plant response rating, Foxtail, Giant [3, 19]: 0
Pigweed plant response rating [4, 13]: 0
Pigweed plant response rating [4, 17]: 0
Plant response rating, Pigweed [4, 18]: 0
Plant response rating, Pigweed [4, 19]: 0
Corn plant response rating [5, 13]: 0
Corn plant response rating [5, 17]: 0
Plant response rating, Corn [5, 18]: 0
Plant response rating, Corn [5, 19]: 0
Wheat plant response rating [6, 13]: 0
Wheat plant response rating [6, 17]: 0
Plant response rating, Wheat [6, 18]: 0
Plant response rating, Wheat [6, 19]: 0
Plant response rating, Barnyardgrass (0 to 100 scale, 0 is no effect, 100 is complete control) ([7]; 250 g ai/ha): 0
Velvetleaf plant response rating [8, 13]: 0
Velvetleaf plant response rating [8, 17]: 0
Plant response rating, Velvetleaf [8, 18]: 0
Plant response rating, Velvetleaf [8, 19]: 0
Morningglory plant response rating [9, 13]: 0
Morningglory plant response rating [9, 17]: 0
Plant response rating, Morningglory [9, 18]: 0
Plant response rating, Morningglory [9, 19]: 0
Plant response rating, Ducksalad (0 to 100 scale, 0 is no effect, 100 is complete control) ([10]; 250 g ai/ha): 0
Crabgrass, Large plant response rating [11, 13]: 0
Crabgrass, Large plant response rating [11, 17]: 0
Plant response rating, Crabgrass, Large [11, 18]: 0
Plant response rating, Crabgrass, Large [11, 19]: 0
Plant response rating, Sedge, Umbrella (0 to 100 scale, 0 is no effect, 100 is complete control) ([12]; 250 g ai/ha): 50

FC(F)(F)c1cccc(-n2nc(Oc3ccnc(C(F)(F)F)c3)c(C3CC3)n2)c1 [Compound 199]
Plant response rating, Barnyardgrass [1, 13]: 10
Barnyardgrass plant response rating [1, 14]: 10
Plant response rating, Barnyardgrass [1, 15]: 0
Plant response rating, Barnyardgrass [1, 16]: 0
Plant response rating, Rice (0 to 100 scale, 0 is no effect, 100 is complete control) ([2]; 125 g ai/ha): 0
Plant response rating, Foxtail, Giant [3, 13]: 10
Foxtail, Giant plant response rating [3, 14]: 20
Plant response rating, Foxtail, Giant [3, 15]: 0
Plant response rating, Foxtail, Giant [3, 16]: 50
Plant response rating, Pigweed [4, 13]: 20
Pigweed plant response rating [4, 14]: 60
Plant response rating, Pigweed [4, 15]: 10
Plant response rating, Pigweed [4, 16]: 30
Plant response rating, Corn [5, 13]: 10
Corn plant response rating [5, 14]: 20
Plant response rating, Corn [5, 15]: 0
Plant response rating, Corn [5, 16]: 0
Plant response rating, Wheat [6, 13]: 0
Wheat plant response rating [6, 14]: 0
Plant response rating, Wheat [6, 15]: 0
Plant response rating, Wheat [6, 16]: 0
Plant response rating, Barnyardgrass (0 to 100 scale, 0 is no effect, 100 is complete control) ([7]; 125 g ai/ha): 0
Plant response rating, Velvetleaf [8, 13]: 10
Velvetleaf plant response rating [8, 14]: 10
Plant response rating, Velvetleaf [8, 15]: 0
Plant response rating, Velvetleaf [8, 16]: 0
Plant response rating, Morningglory [9, 13]: 10
Morningglory plant response rating [9, 14]: 20
Plant response rating, Morningglory [9, 15]: 0
Plant response rating, Morningglory [9, 16]: 0
Plant response rating, Ducksalad (0 to 100 scale, 0 is no effect, 100 is complete control) ([10]; 125 g ai/ha): 0
Plant response rating, Crabgrass, Large [11, 13]: 10
Crabgrass, Large plant response rating [11, 14]: 20
Plant response rating, Crabgrass, Large [11, 15]: 20
Plant response rating, Crabgrass, Large [11, 16]: 70
Plant response rating, Sedge, Umbrella (0 to 100 scale, 0 is no effect, 100 is complete control) ([12]; 125 g ai/ha): 0
